Reference: ChEMBL document CHEMBL4651402, “Screening of ~5500 FDA-approved drugs and clinical candidates for anti-SARS-CoV-2 activity” (2021)

Test system: SARS-CoV-2
Assay: microbe, parasite or virus in culture
Conditions: Severe acute respiratory syndrome coronavirus 2, Vero C1008, 48 h

Row | Structure (SMILES) | IC50 | IC50 (read-out: pIC50 (converted))
1 | CCC[C@@H]1C[C@@H](C(=O)N[C@@H](C(C)O)[C@H]2O[C@H](SC)[C@H](O)[C@@H](O)[C@H]2O)N(C)C1 (some centres undefined) | > 20 µM | > 20 µM
2 | CC1=C(CC(=O)O)c2cc(F)ccc2/C1=C\c1ccc([S+](C)[O-])cc1 (centres undefined) | > 20 µM | > 20 µM
3 | COc1c2occc2cc2ccc(=O)oc12 [METHOXSALEN] | > 20 µM | > 20 µM
4 | CC(=O)N(C)C1(c2ccccc2)CCN(CCC[C@]2(c3ccc(Cl)c(Cl)c3)CCCN(C(=O)c3ccccc3)C2)CC1 [OSANETANT] | > 20 µM | > 20 µM
5 | O=C1C[C@@H](c2ccc(O)cc2)Oc2cc(O)cc(O)c21 [NARINGENIN] | > 20 µM | > 20 µM
6 | OC[C@H]1O[C@@H](n2cnc3c2N=CNC[C@H]3O)C[C@@H]1O [PENTOSTATIN] | > 20 µM | > 20 µM
7 | COc1ccc(S(=O)(=O)Nc2cccnc2Nc2ccc(O)cc2)cc1 [ABT-751] | > 20 µM | > 20 µM
8 | CC1(C)CCC2(C)CCC3(C)C(=CCC4C5(C)CCC(O)C(C)(C)[C@@H]5CCC43C)C2C1 (some centres undefined) | > 20 µM | > 20 µM
9 | Cc1nc(C)c(Cl)c(O)c1Cl [CLOPIDOL] | > 20 µM | > 20 µM
10 | COc1ccc2c3c1O[C@H]1[C@@H](OC(C)=O)C=C[C@H]4[C@@H](C2)N(C)CC[C@@]341 | > 20 µM | > 20 µM
11 | C[C@@H]1C[C@H]2[C@@H]3CCC4=CC(=O)C=C[C@]4(C)[C@@]3(F)[C@@H](O)C[C@]2(C)[C@@]1(O)C(=O)CO [DEXAMETHASONE] | > 20 µM | > 20 µM
12 | COc1cc2c(c(OC)n1)[C@]1(O)[C@H](O)[C@H](CN(C)C)[C@@H](c3ccccc3)[C@]1(c1ccc(C#N)cc1)O2 [ZOTATIFIN] | > 20 µM | > 20 µM
13 | S=C(NC1CCCCC1)N1CCC(c2cnc[nH]2)CC1 [THIOPERAMIDE] | > 20 µM | > 20 µM
14 | COc1cc(-c2ccc(=O)[nH]n2)ccc1OC(F)F [ZARDAVERINE] | > 20 µM | > 20 µM
15 | Nc1ncnc(Nc2ccccc2)n1 [AMANOZINE] | > 20 µM | > 20 µM
16 | Nc1nccc2c1ncn2C1OC(CO)C(O)C1O (centres undefined) | > 20 µM | > 20 µM
17 | COc1cc(/C=C/C(=O)O)ccc1O [FERULATE] | > 20 µM | > 20 µM
18 | CC(=O)[C@H]1CC[C@H]2[C@@H]3CC[C@H]4C[C@H](O)CC[C@]4(C)[C@H]3C(=O)C[C@]12C [ALFAXALONE] | > 20 µM | > 20 µM
19 | COc1ccccc1O [GUAIACOL] | > 20 µM | > 20 µM
20 | C[C@H]([C@@H](N)C(=O)N[C@@H](C(=O)O)[C@@H]1O[C@H](n2ccc(=O)[nH]c2=O)[C@@H](O)[C@H]1O)[C@@H](O)c1ccc(O)cn1 | > 20 µM | > 20 µM
21 | C[N+]1(C)[C@@H]2CC[C@@H]1CC(OC(=O)C(CO)c1ccccc1)C2 (some centres undefined) | > 20 µM | > 20 µM
22 | CO[C@@]1(NC(=O)Cc2cccs2)C(=O)N2C(C(=O)O)=C(COC(N)=O)CS[C@@H]21 [CEFOXITIN] | > 20 µM | > 20 µM
23 | COc1ccc2c(OC3CC4C(=O)NC5(C(=O)NS(=O)(=O)C6CC6)CC5/C=C\CCCCN(C)C(=O)C4C3)cc(-c3nc(C(C)C)cs3)nc2c1C (centres undefined) | > 20 µM | > 20 µM
24 | C[C@@H]1O[C@@H]1P(=O)(O)O [FOSFOMYCIN] | > 20 µM | > 20 µM

Row | Structure (SMILES) | IC50 | IC50 (read-out: pIC50 (converted))
25 | CC(C)(C)C(O)/C=C/c1ccc2c(c1)OCO2 (centres undefined) [STIRIPENTOL] | > 20 µM | > 20 µM
26 | CCc1cnn2c(NCc3ccc[n+]([O-])c3)cc(N3CCCC[C@H]3CCO)nc12 [DINACICLIB] | > 20 µM | > 20 µM
27 | CC[C@H](C)[C@H]1O[C@]2(C=C[C@@H]1C)C[C@@H]1C[C@@H](C/C=C(/C)[C@@H](O[C@H]3C[C@H](OC)[C@@H](O[C@H]4C[C@H](OC)[C@@H](O)[C@H](C)O4)[C@H](C)O3)[C@@H](C)/C=C\C=C3\CO[C@@H]4[C@H](O)C(C)=C[C@@H](C(=O)O1)[C@]34O)O2 | > 20 µM | > 20 µM
28 | Cc1ccc(NC2=NCCN2)c(Cl)c1 [TOLONIDINE] | > 20 µM | > 20 µM
29 | CO/N=C/C1=CCCN(C)C1 [MILAMELINE] | > 20 µM | > 20 µM
30 | Nc1c2c(nc3c1CCC3)CCCC2 [IPIDACRINE] | > 20 µM | > 20 µM
31 | CC(C)OC(=O)[C@H](C)NP(=O)(OC[C@H]1O[C@@H](n2ccc(=O)[nH]c2=O)[C@](C)(F)[C@@H]1O)Oc1ccccc1 (some centres undefined) | > 20 µM | > 20 µM
32 | Cn1cc(-c2cccc3cc(C(=O)NC(=N)N)ccc23)cn1 | > 20 µM | > 20 µM
33 | CS(=O)(=O)CCCn1c(Cn2c(=O)n(CC(F)(F)F)c3ccncc32)cc2cc(Cl)ccc21 [RILEMATOVIR] | > 20 µM | > 20 µM
34 | CO/N=C(\C(=O)N[C@@H]1C(=O)N2C(C(=O)O)=C(CSc3nc(=O)c(O)nn3C)CS[C@H]12)c1csc(N)n1 [CEFTRIAXONE] | > 20 µM | > 20 µM
35 | CCN(CCO)CCn1c(Cc2ccccc2)nc2c1c(=O)n(C)c(=O)n2C [BAMIFYLLINE] | > 20 µM | > 20 µM
36 | C[C@@H]1CN(c2c(F)c(N)c3c(=O)c(C(=O)O)cn(C4CC4)c3c2F)C[C@H](C)N1 [SPARFLOXACIN] | > 20 µM | > 20 µM
37 | CC(C)(CO)C(=O)SCCOP(=O)(NCc1ccccc1)OC[C@H]1O[C@@H](n2cnc3c(=O)[nH]c(N)nc32)[C@](C)(O)[C@@H]1O (some centres undefined) | > 20 µM | > 20 µM
38 | NCCCCN [PUTRESCINE] | > 20 µM | > 20 µM
39 | CCC(C(=O)O)c1ccc(-c2ccccc2)cc1 (centres undefined) [XENBUCIN] | > 20 µM | > 20 µM
40 | CCN(CC)CCc1nc(-c2ccccc2)no1 [OXOLAMINE] | > 20 µM | > 20 µM
41 | Cn1c(NCCN(CCO)CCCc2ccc([N+](=O)[O-])cc2)cc(=O)n(C)c1=O [NIFEKALANT] | > 20 µM | > 20 µM
42 | CO[C@H]1[C@H](O)[C@H](O[C@H]2CC[C@@]3(C=O)[C@H](CC[C@@H]4[C@@H]3CC[C@]3(C)[C@@H](C5=CC(=O)OC5)CC[C@]43O)C2)O[C@@H](C)[C@@H]1O [PERUVOSIDE] | > 20 µM | > 20 µM
43 | CN(C)CCCN1c2ccccc2Sc2ccc(C(F)(F)F)cc21 [TRIFLUPROMAZINE] | > 20 µM | > 20 µM
44 | CC1(C)S[C@@H]2[C@H](NC(=O)[C@H](N)c3ccccc3)C(=O)N2[C@H]1C(=O)O [AMPICILLIN] | > 20 µM | > 20 µM
45 | Cc1cccc(-c2nn3c(c2-c2ccnc4ccc(C(N)=O)cc24)CCC3)n1 [GALUNISERTIB] | > 20 µM | > 20 µM
46 | C[N+](C)(C)CCCCCCCCCC[N+](C)(C)C [DECAMETHONIUM] | > 20 µM | > 20 µM
47 | Cc1cn(C2C=CC(CO)O2)c(=O)[nH]c1=O (centres undefined) | > 20 µM | > 20 µM
48 | CN(C)CCOc1ccc2c(=O)c3ccc(OCCN(C)C)cc3oc2c1 | > 20 µM | > 20 µM

Row | Structure (SMILES) | IC50 | IC50 (read-out: pIC50 (converted))
49 | CC(O)(C(N)=O)c1ccccc1 (centres undefined) [ATROLACTAMIDE] | > 20 µM | > 20 µM
50 | COc1c(O)cc2c(c1O)C1OC(CO)C(O)C(O)C1OC2=O (centres undefined) | > 20 µM | > 20 µM
51 | CC(S)C(=O)NCC(=O)O (centres undefined) [TIOPRONIN] | > 20 µM | > 20 µM
52 | Cc1cc(C)cc(OCC2CNC(=O)O2)c1 (centres undefined) [METAXALONE] | > 20 µM | > 20 µM
53 | COc1cc2ccc(=O)oc2cc1O [SCOPOLETIN] | > 20 µM | > 20 µM
54 | CC(C)CC(NC(=O)C(Cc1ccccc1)NC(=O)CNC(=O)C(C)NC(=O)C(N)Cc1ccc(O)cc1)C(=O)O (centres undefined) | > 20 µM | > 20 µM
55 | CCc1cn([C@H]2C[C@H](O)[C@@H](CO)O2)c(=O)[nH]c1=O [EDOXUDINE] | > 100 µM | > 100 µM
56 | CCOCn1c(Cc2ccccc2)c(C(C)C)c(=O)[nH]c1=O [EMIVIRINE] | > 20 µM | > 20 µM
57 | c1ccc2c(c1)CC[C@H](CNCCCNC1=NCCCN1)O2 | > 20 µM | > 20 µM
58 | C=CCN1CC[C@]23CCCCC2[C@H]1Cc1ccc(O)cc13 (some centres undefined) | > 20 µM | > 20 µM
59 | C[C@]12CCC(=O)C=C1CC[C@@H]1[C@@H]2C(=O)C[C@]2(C)C(=O)CC[C@@H]12 [ADRENOTERONE] | > 20 µM | > 20 µM
60 | Cc1nc2ccc(-n3ncc(C(=O)c4cc5ccccc5[nH]4)c3N)cc2[nH]1 [FGFR INHIBITOR DEBIO 1347] | > 20 µM | > 20 µM
61 | COc1ccc(Cc2nccc3cc(OC)c(OC)cc23)cc1OC [PAPAVERINE] | > 20 µM | > 20 µM
62 | CNC(=O)c1cc(Oc2ccc(NC(=O)Nc3ccc(Cl)c(C(F)(F)F)c3)c(F)c2)ccn1 [REGORAFENIB] | > 20 µM | > 20 µM
63 | C=C1[C@H](CO)[C@@H](O)C[C@@H]1n1cnc2c(=O)[nH]c(N)nc21 | > 20 µM | > 20 µM
64 | CCc1ccc(C(=O)COc2ccc(CC3SC(=O)NC3=O)cc2)nc1 (centres undefined) [MITOGLITAZONE] | > 20 µM | > 20 µM
65 | CN(C)N=Nc1[nH]cnc1C(N)=O | > 20 µM | > 20 µM
66 | CN1C(=O)C(NC(=O)c2cc3ccccc3[nH]2)N=C(c2ccccc2)c2ccccc21 (centres undefined) | > 20 µM | > 20 µM
67 | CN(CCO)CC(O)Cn1cnc2c1c(=O)n(C)c(=O)n2C (centres undefined) [XANTHINOL] | > 20 µM | > 20 µM
68 | C=C(C)C(=O)OCCCCCCCCCCCC | > 20 µM | > 20 µM
69 | CCC1(O)CC2CN(CCc3c([nH]c4ccccc34)C(C(=O)OC)(c3cc4c(cc3OC)N(C)C3C(O)(C(=O)OC)C(OC(C)=O)C5(CC)C=CCN6CCC43C65)C2)C1 (centres undefined) | > 20 µM | > 20 µM
70 | CN1CCC(=C2c3ccccc3CCc3sccc32)CC1 [PIZOTYLINE] | > 20 µM | > 20 µM
71 | Fc1ccc(NC(=S)Nc2cc(Cl)cc(Cl)c2)cc1 [LOFLUCARBAN] | > 20 µM | > 20 µM
72 | CN(C)C1CCc2[nH]c3c(F)cc(F)cc3c2C1 (centres undefined) [FLUCINDOLE] | > 20 µM | > 20 µM
